Test results as given in patent publication US11548850B2, “Development of a cofilin inhibitor for the treatment of hemorrhagic brain injury-induced neuroinflammation” (The University of Toledo, priority 2019, dated 2023).
Entries after “also recorded” stand apart in the source; their conditions may differ.

Legend:
[1] = tested on: cofilin; experiment: WB of cofilin in thrombin-challenged HMC3 cells; format: cell-based, human; settings: thrombin 100 U/ml
Description: (§1) FIG. 11: SZ-3 reduces inflammation through NF-κB mechanism. Cultured HMC3 cells were challenged with thrombin 100 U/ml and after 3 h were treated with different concentrations of SZ-3 (10 and 5 μM). Cells were harvested for WB analysis after 24 h.
(§2) WB was used to assay the expression levels of cofilin, phosphocofilin, and NF-κB. […] Without wishing to be bound by theory, the role of phosphocofilin is not fully understood, but it is believed that it is decreased in stress conditions and its restoration is beneficial.
(§3) HMC3 cells were cultured in DMEM/F12 medium supplemented with 5% horse serum (HS), 10% fetal bovine serum (FBS), and 1% penicillin/streptomycin. Cells were stimulated with 100 U/ml thrombin from bovine plasma (Sigma) and treated without (vehicle) or with different concentrations of SZ-3.
(§4) Cells were harvested and washed with ice-cold lysis buffer (250 mM sucrose, 1.5 mM MgCl2, 10 mM KCl, 20 mM HEPES 7.6 pH, 1 mM of dithiothreitol, 1 mM phenylmethylsulfonyl fluoride, 50 mM NaF, 10 mM sodium orthovanadate, 20 mM sodium pyrophosphate, and protease inhibitors) for 15 min then supplemented with 5% of Nonidet P-40 for 2 min. Cytosolic fraction was collected from the supernatant after centrifugation at 14,000 g for 10 min. Bradford reagent (Bio-Rad Laboratories) was used to determine the protein concentrations, and equal amounts of samples were loaded onto 10-15% SDS-polyacrylamide gels, separated by electrophoresis, and transferred to PVDF membranes. Membranes were blocked and incubated with primary antibodies; cofilin, phosphocofilin, and NF-kB (Cell Signaling Technology) at 4° C. overnight. Membranes were incubated for 1 h at room temperature with horseradish peroxidase-conjugated secondary antibody (1:5000; Jackson ImmunoResearch) after washing. Glyceraldehyde 3-phosphate dehydrogenase (GAPDH) or beta-actin were used as the loading control, and band intensity analyzed using Bio-Rad Chemi-Doc XRS Image Lab Software.

[2] = tested on: mice with hemorrhage; experiment: Experimental hemorrhage in mice by collagenase injection into the striatum; format: in vivo
Description: Mice were subjected to experimental hemorrhage by injecting collagenase into the striatum. After 3 h of collagenase injection, mice were treated with two concentrations of SZ-3 (1 and 10 mg/kg, i.p.) followed by 12 hourly injections until day 3. Mice were evaluated for baseline rotarod and grip strength 24 h prior and after hemorrhage and then after every 24 hs for three days. N=12 per group. FIG. 12A depicts a timeline of the experiment, and photographs of the mice.
The top column is Sham, the second column is vehicle, the third column is SZ-3 (1 mg/kg), and the fourth column is SZ-3 (10 mg/kg).
Finally, it was desired to elucidate if treatment with SZ-3 can mitigate the hemorrhage induced behavioral deficits. Hemorrhage was induced in mice, and the mice were then treated with SZ-3. Mice were subjected to experimental hemorrhage by injecting collagenase into the mice striatum. Collagenase model simulates the hemorrhage by inducing vessel damage resulting in localized hematomas. This model is widely used in hemorrhagic stroke research.
Mice were treated with two concentrations of SZ-3 (1 and 10 mg/kg, i.p;) immediately after 3 h of hemorrhage and then after every 12 h for 3 days (FIG. 12A). […] Normally, the mice are substantially paralyzed a short time after the stroke.

[3] = Solubility of SZ-3 in the mouse study; format: physicochemical
[4] = tested on: TNF-α; experiment: TNF-α ELISA in LPS-challenged HMC3 cells; format: cell-based, human; settings: SZ-3 10 μM and 5 μM
Description: (§5) Cultured HMC3 cells were challenged with 0.1 μg/mL of LPS and treated with different concentrations of SZ-3 concurrently. At the end of the experiment cells were harvested for MTT by CellTiter-Glo Luminescent assay (FIG. 9A), Griess assay for NO release (FIG. 9B), and TNF-α by ELISA (FIG. 9C).
After hemorrhage, activated microglia release proinflammatory mediators such as cytokines, chemokines, and nitric oxide (NO) leading to secondary injury which may be worse than the initial insult and may result in severe neurological deficits and death. In order to test whether the synthesized compound will reduce or stop microglial activation and inflammation after hemorrhage, whether the compound poses toxicity to microglia was first assessed. […]
Next, a NO release assay was performed to determine if SZ-3 can reduce the NO release. […] Next, whether the major inflammatory cytokine TNF-α is reduced with the SZ-3 treatment was evaluated. […]
HMC3 cells (30,000 cells/well in a 96-well plate) were stimulated by LPS ([…]), then treated with DMSO or different concentrations of drug 3 h later. The supernatants were collected after 24 h, and the concentrations of TNF-α were measured using enzyme-linked immunosorbent assay (ELISA) according to the kit's instructions (R&D Systems, Inc.).

[5] = tested on: NF-κB; experiment: WB of NF-κB in thrombin-challenged HMC3 cells; format: cell-based, human; settings: thrombin 100 U/ml, SZ-3 10, 5 μM after 3 h, WB after 24 h
Description: as §1, §2, §3
Cells were harvested and washed with ice-cold lysis buffer (250 mM sucrose, 1.5 mM MgCl2, 10 mM KCl, 20 mM HEPES 7.6 pH, 1 mM of dithiothreitol, 1 mM phenylmethylsulfonyl fluoride, 50 mM NaF, 10 mM sodium orthovanadate, 20 mM sodium pyrophosphate, and protease inhibitors) for 15 min then supplemented with 5% of Nonidet P-40 for 2 min. […] Glyceraldehyde 3-phosphate dehydrogenase (GAPDH) or beta-actin were used as the loading control, and band intensity analyzed using Bio-Rad Chemi-Doc XRS Image Lab Software.

[6] = tested on: HMC3 cells; experiment: Cell viability of LPS-challenged HMC3 cells (CellTiter-Glo Luminescent assay); format: cell-based; settings: LPS 0.1 μg/mL, SZ-3 5-10 μM concurrently
Description: as §5
After hemorrhage, activated microglia release proinflammatory mediators such as cytokines, chemokines, and nitric oxide (NO) leading to secondary injury which may be worse than the initial insult and may result in severe neurological deficits and death. In order to test whether the synthesized compound will reduce or stop microglial activation and inflammation after hemorrhage, whether the compound poses toxicity to microglia was first assessed. Human microglial cell line (HMC3) was challenged or activated with lipopolysaccharide (LPS) ([…]) and treated with different concentrations of the SZ-3 (10 and 5 μM) concurrently. CellTiter-Glo luminescent assay was used for cell viability; Griess reagent assay was used for NO release and ELISA was used for TNF-α estimations.
All types of cells used in these examples were assayed for viability and proliferation after 24-72 h using the MTT or CellTiter-Glo Luminescent assay Promega (Madison, Wis.). Cells after treatment were incubated with MTT reagent for 3 h in 5% CO2 at 37° C. […] Absorbance was read at 570 nm to quantify cell viability. […]

[7] = tested on: cofilin; experiment: WB analysis of cofilin expression in thrombin-challenged SHSY cells; format: cell-based, human; settings: thrombin 100 U/ml, SZ-3 5 μM after 3 h, WB after 24 h
Description: (§6) The synthesized SZ-3 compound was tested for neuroprotective properties in cell-based models using a neuroblastoma cell line (SHSY) and thrombin as a stressor. Thrombin was used as a cell death inducer in cell-based models for hemorrhagic brain injury. SHSY cells were challenged by 100 U/ml thrombin and after 3 hrs treated with different concentrations of synthesized compounds. […] Cell death is observed through fluorescence.
as §4, with “Membranes were blocked and incubated with primary antibodies; cofilin, phosphocofilin, and NF-kB (Cell Signaling Technology) at 4° C. overnight. Membranes were incubated for 1 h at room temperature with horseradish peroxidase-conjugated secondary antibody (1:5000; Jackson ImmunoResearch) after washing.” left out

[8] = tested on: SHSY cells; experiment: Toxicity of SZ-3 in cultured SHSY cells (MTT); format: cell-based; settings: different concentrations of SZ-3, 5-20 μM range
Description: as §6
All types of cells used in these examples were assayed for viability and proliferation after 24-72 h using the MTT or CellTiter-Glo Luminescent assay Promega (Madison, Wis.). Cells after treatment were incubated with MTT reagent for 3 h in 5% CO2 at 37° C. The medium was replaced with DMSO to dissolve formazan crystals. Absorbance was read at 570 nm to quantify cell viability. CellTiter-Glo reagents were used in some experiments by adding equal amounts of reagent to the amount of medium containing cells for a 96-well plate. Contents were mixed for 2 minutes then incubated the plate for 10 minutes at room temperature to stabilize luminescent signal.

SMILES: CC(C)(C)c1ccc(O)c(CN(Cc2cc(C(C)(C)C)ccc2O)C2CCC(NC(N)=O)CC2)c1 (stereo not shown) [SZ-3, 4-{bis[(5-tert-butyl-2-hydroxyphenyl)methyl]amino}cyclohexyl urea]
- cofilin level ([1]; SZ-3 10 μM): significant decrease in cofilin level was observed only in 10 μM
- cofilin expression level ([1]; SZ-3 10, 5 μM after 3 h, WB after 24 h): significantly reduced
- cell death after experimental ICH ([2]; FIG. 13, SZ-3 1 mg/kg and 10 mg/kg versus vehicle, fluorescence): barely any cell death; also recorded: reduces cell death after experimental ICH
- motor function assessed by rotarod ([2]; SZ-3 1 and 10 mg/kg i.p. 3 h after hemorrhage then every 12 h for 3 days, day 2 and 3): significantly reversed
- grip strength ([2]; SZ-3 1 and 10 mg/kg i.p., after hemorrhage): showed enhanced grip strength
- lesions in the mice ([2]; mice treated with SZ-3): no lesions formed
- grip of sham mice ([2]; sham mice, no induced hemorrhage): improved the grip of the mice even without hemorrhage
- solubility [3]: no solubility issues
- TNF-α levels [4]: significantly reduced TNF-α levels; also recorded: significantly reduced NO and TNF-α release
- NF-κB expression level [5]: significantly reduced
- toxicity in LPS-challenged HMC3 cells [6]: No cell toxicity was observed
- cofilin expression [7]: significantly reduced cofilin expression
- toxicity in SHSY cells [8]: did not show any signs of toxicity; also recorded: No toxicity was observed
